Laboratory results reported in paper PMC8694318, “Discovery of pyrano[2,3-d]pyrimidine-2,4-dione derivatives as novel PARP-1 inhibitors: design, synthesis and antitumor activity” (RSC Advances, 2021).
Read-outs that look alike come from different tables or passages of the source.

What was measured:
[1] = biological target: T1, PARP-1 (Homo sapiens, UniProt P09874); experiment: In vitro PARP-1 inhibitory assay (colorimetric 96-well kit, BPS Bioscience); type: biochemical
T1 construct: purchased BPS Bioscience 80580
Procedure: Briefly, the histone mixture was diluted 1 : 5 with 1× PBS, 50 μl of histone solution was added to each well and incubated at 4 °C overnight. The plate was washed three times using 200 μl PBST buffer (1× PBS containing 0.05% Tween-20) per well. Liquid was removed from the wells by tapping the strip wells on clean paper towels. To each well, 200 μl of blocking buffer was added, followed by 60–90 min incubation at room temperature. Then 25 μl of PARP master mixture (consisting of 2.5 μl 10× PARP buffer + 2.5 μl 10× PARP assay mixture + 5 μl activated DNA + 15 μl distilled water) was added to each well. Olaparib was used as a positive control. 5 μl of inhibitor solution of each well labeled as “test inhibitor” was added. For the “positive control” and “blank”, 5 μl of the same solution without inhibitor was added. 1× PARP buffer was prepared by adding 1 part of 10× PARP buffer to 9 parts H2O (v/v), 20 μl of 1× PARP buffer was added to the wells designated as “blank”. The amount of PARP-1 required for the assay was then calculated. The reaction was initiated by adding 20 μl of diluted PARP1 enzyme to the wells designated “positive control” and “test inhibitor control”. The strip wells were incubated at room temperature for 1 hour. The strip wells were then washed three times with 200 μl PBST buffer. Then, 50 μl of 50 times diluted Streptavidin-HRP with blocking buffer was added to each well, and the strips were further incubated at room temperature for 30 min. After washing the wells three times with 200 μl PBST buffer, HRP colorimetric substrate was added to each well and the plate was incubated at the room temperature until a blue color is developed in the positive control well. Then reaction was quenched with […] per well of 2 M sulfuric acid, and absorbance at 450 nm was determined. Carrier solvents were assayed as negative controls. All assays were performed in triplicate. To determine the IC50 value for each inhibitor, the average absorbance of each inhibitor concentration was plotted against the log of the concentration of each respective inhibitor and the IC50 value for each plot was obtained using computer-assisted non-linear regression analyses. Data presented are the results of at least two independent experiments done in triplicate. The results of these studies are presented as mean IC50 (nM).[24]

[2] = system: MCF-7 cells; experiment: Cell proliferation inhibition (MTT) assay, MCF-7; type: cell-based; conditions: Homo sapiens, MCF7, 96 h incubation
Procedure: (§1) We used the MTT [3-(4,5-dimethylthiazol-2-yl)-2,5-diphenyltetrazoliumbromide] (Biomatik, Wilmington, DE) assay to measure cell growth inhibition, which is based on the conversion of MTT to formazan crystals by mitochondrial dehydrogenases.[25] Only in live cells, mitochondrial enzymes can transform MTT into insoluble formazan. After incubated with serially diluted inhibitors for 96 h, cell cultures were incubated with MTT solution (5 mg ml^−1) for 4 h at 37 °C. Then discard the medium and DMSO was added to solubilize the reaction product formazan by shaking for 10 min. Absorbance at 492 nm was measured with a microplate reader (Thermo, MK3). Cell viability was expressed as an IC50 value.

[3] = system: HCT116 cells; experiment: Cell proliferation inhibition (MTT) assay, HCT116; type: cell-based; conditions: Homo sapiens, HCT-116, 96 h incubation
Procedure: as §1

[4] = colorimetric assay, mean of at least two independent experiments in triplicate, read-out: IC50 against PARP-1 (converted)

T1 sequence (P09874 whole entry): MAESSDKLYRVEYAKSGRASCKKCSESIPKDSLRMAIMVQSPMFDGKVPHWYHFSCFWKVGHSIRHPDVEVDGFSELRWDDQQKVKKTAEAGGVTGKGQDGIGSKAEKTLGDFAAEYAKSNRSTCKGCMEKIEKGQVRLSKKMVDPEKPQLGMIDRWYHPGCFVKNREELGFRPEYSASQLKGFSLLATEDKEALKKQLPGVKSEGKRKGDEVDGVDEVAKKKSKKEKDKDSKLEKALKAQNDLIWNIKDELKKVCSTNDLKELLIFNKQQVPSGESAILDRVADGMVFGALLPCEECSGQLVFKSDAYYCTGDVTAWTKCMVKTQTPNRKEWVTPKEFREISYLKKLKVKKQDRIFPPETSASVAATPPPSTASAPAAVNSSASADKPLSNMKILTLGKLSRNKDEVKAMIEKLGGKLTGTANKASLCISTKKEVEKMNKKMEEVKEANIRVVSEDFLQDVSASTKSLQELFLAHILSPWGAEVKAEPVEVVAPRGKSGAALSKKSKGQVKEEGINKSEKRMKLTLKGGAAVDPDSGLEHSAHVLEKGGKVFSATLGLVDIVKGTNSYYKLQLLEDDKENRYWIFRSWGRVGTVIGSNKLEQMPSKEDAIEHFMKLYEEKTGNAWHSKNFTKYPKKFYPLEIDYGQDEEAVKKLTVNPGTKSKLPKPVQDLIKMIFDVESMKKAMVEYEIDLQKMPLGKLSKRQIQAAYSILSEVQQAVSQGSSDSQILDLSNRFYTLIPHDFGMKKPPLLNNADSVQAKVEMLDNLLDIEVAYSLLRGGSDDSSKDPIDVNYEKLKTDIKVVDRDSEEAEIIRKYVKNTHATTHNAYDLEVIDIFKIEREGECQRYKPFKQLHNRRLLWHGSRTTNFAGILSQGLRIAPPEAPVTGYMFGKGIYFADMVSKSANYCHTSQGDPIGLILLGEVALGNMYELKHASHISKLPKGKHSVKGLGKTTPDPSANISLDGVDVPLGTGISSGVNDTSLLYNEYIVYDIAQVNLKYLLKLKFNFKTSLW

Row | IC50 [1, 4] [nM] | IC50 [2] [nM] | IC50 [3] [nM] | IC50 ([1]; read-out: IC50 against PARP-1 (converted)) [nM] | Compound | IC50 [1] [nM]
1 | 49.1 ± 2.32 | 12680 ± 120 | 24100 ± 1140 |  | N#CC1=C(N)Oc2[nH]c(=O)[nH]c(=O)c2C1c1cccs1 (centres unmarked) [Compound S1, 7-amino-2,4-dioxo-5-(thiophen-2-yl)-2,3,4,5-tetrahydro-1H-pyrano[2,3-d]pyrimidine-6-carbonitrile] | 
2 | 4.06 ± 0.18 | 2650 ± 50 | 9310 ± 340 |  | Nc1nc(S)nc2c1Oc1[nH]c(=O)[nH]c(=O)c1C2c1cccs1 (centres unmarked) [Compound S2, 4-amino-2-mercapto-10-(thiophen-2-yl)-6,10-dihydro-7H-pyrano[2,3-d:5,6-d']dipyrimidine-7,9(8H)-dione] | 
3 | 14.9 ± 1.03 | 870 ± 70 | 6380 ± 110 | 15.1 | Nc1ncnc2c1Oc1[nH]c(=O)[nH]c(=O)c1C2c1cccs1 (centres unmarked) [Compound S4, 4-amino-10-(thiophen-2-yl)-6,10-dihydro-7H-pyrano[2,3-d:5,6-d']dipyrimidine-7,9(8H)-dione] | 
4 | 11.1 ± 0.76 | 4950 ± 70 | 7410 ± 180 |  | O=c1[nH]c2c(c(=O)[nH]1)C(c1cccs1)c1[nH]c(=S)[nH]c(=S)c1O2 (centres unmarked) [Compound S5, 10-(thiophen-2-yl)-2,4-dithioxo-1,2,3,4,6,10-hexahydro-7H-pyrano[2,3-d:5,6-d']dipyrimidine-7,9(8H)-dione] | 
5 | 115 ± 7.22 | 3120 ± 110 | 2850 ± 30 |  | CONC1=C(C#N)Oc2[nH]c(=O)[nH]c(=O)c2C1c1cccs1 (centres unmarked) [Compound S6, 6-(methoxyamino)-2,4-dioxo-5-(thiophen-2-yl)-2,3,4,5-tetrahydro-1H-pyrano[2,3-d]pyrimidine-7-carbonitrile] | 
6 | 3.61 ± 0.15 | 1280 ± 1120 | 46900 ± 1820 |  | O=c1[nH]c2c(c(=O)[nH]1)C(c1cccs1)c1[nH]c(=S)n(-c3ccccc3)c(=O)c1O2 (centres unmarked) [Compound S7, 3-phenyl-10-(thiophen-2-yl)-2-thioxo-2,3,6,10-tetrahydro-1H-pyrano[2,3-d:5,6-d']dipyrimidine-4,7,9(8H)-trione] | 
7 | 15.8 ± 0.86 | 660 ± 50 | 2760 ± 60 |  | NC1=CC(c2ccc([N+](=O)[O-])cc2)=NC2Oc3[nH]c(=O)[nH]c(=O)c3C(c3cccs3)C12 (centres unmarked) [Compound S8, 6-amino-8-(4-nitrophenyl)-5-(thiophen-2-yl)-1,5,5a,9a-tetrahydro-2H-pyrido[3′,2':5,6]pyrano[2,3-d]pyrimidine-2,4(3H)-dione] | 
8 | 48.5 ± 3.25 | 8770 ± 150 | 2900 ± 40 |  | CCO/C=N/C1=C(C#N)C(c2cccs2)c2c([nH]c(=O)[nH]c2=O)O1 (centres unmarked) [Compound S9, (E)-ethyl N-(6-cyano-2,4-dioxo-5-(thiophen-2-yl)-2,3,4,5-tetrahydro-1H-pyrano[2,3-d]pyrimidin-7-yl)formimidate] | 
9 | 16.2 ± 0.88 | 4480 ± 430 | 12100 ± 640 |  | Cc1nc(O)c2c(n1)Oc1[nH]c(=O)[nH]c(=O)c1C2c1cccs1 (centres unmarked) [Compound S10, 6-hydroxy-8-methyl-5-(thiophen-2-yl)-1,5-dihydro-2H-pyrano[2,3-d:6,5-d']dipyrimidine-2,4(3H)-dione] | 

Row | Compound | IC50 [1, 4] [nM] | IC50 [2] [nM] | IC50 [3] [nM] | IC50 ([1]; read-out: IC50 against PARP-1 (converted)) [nM] | IC50 [1] [nM]
10 | Nc1nn(-c2cc([N+](=O)[O-])ccc2[N+](=O)[O-])c2c1Oc1[nH]c(=O)[nH]c(=O)c1C2c1cccs1 (centres unmarked) [Compound S3, 3-amino-1-(2,5-dinitrophenyl)-9-(thiophen-2-yl)-5,9-dihydropyrazolo[3′,4':5,6]pyrano[2,3-d]pyrimidine-6,8(1H,7H)-dione] |  | 3170 ± 1040 | 2800 ± 70 |  | 71.4 ± 4.12
11 | CN[C@@H]1C[C@H]2O[C@@](C)([C@@H]1OC)n1c3ccccc3c3c4c(c5c6ccccc6n2c5c31)C(=O)NC4 [Staurosporine, reference compound] |  |  | 6940 ± 210 |  | 
